# According to patent US10774122B2, “ERG targeted therapy” (The Regents of the University of Michigan, priority 2017, dated 2020):
# Where a SMILES comes first, the peptide text is derived from it. [ ]: non-standard residue; d: D form.
# What was measured:
# [1] = system: VCaP (ERG fusion-positive) xenografts; assay: VCaP xenograft mouse model, tumor growth
# Experimental: Athymic Nude-Foxnlnu male mice were procured from Harlan Laboratories, Inc (Indianapolis, Ind.). All procedures involving mice were approved by the University Committee on Use and Care of Animals (UCUCA) at the University of Michigan and conformed to their relevant regulatory standards. […] Statistical significance for Kaplan-Meier analysis was determined by the log-rank (Mantel-Cox) test.
# Athymic Nude-Foxnlnu male mice were procured from Harlan Laboratories, Inc. (Indianapolis, Ind.). VCaP (2×10^6 cells) or PC3 (5×10^5 cells) were resuspended in 100 μl of saline with 50% Matrigel (BD Biosciences, Becton Drive, NJ) and implanted subcutaneously into the flank regions on both sides of the mice. Mice were anesthetized using a cocktail of xylazine (80-120 mg/kg, IP) and ketamine (10 mg/kg, IP) for chemical restraint before tumor cells implantation. For short term assays, all tumors were staged for three weeks before starting peptidomimetic treatment. After week 3 (VCaP cells) or 12 days (PC3 cells), mice (10 per treatment group) were treated with peptidomimetics (25 mg/kg or 10 mg/kg as indicated, IP) daily five times a week.
# Tumor growth was recorded every three days using digital calipers and tumor volumes were calculated using the formula (π/6) (L×W2), where L=length of tumor and W=width. Body weight was monitored weekly over the course of the study. At the end of the xenograft studies, mice were anaesthetized and blood was collected by cardiac puncture and tumors were preserved for further biochemical and immunofluorescence analysis. […] Survival analysis was carried out using the GraphPad Prism 4.0 software (GraphPad Software, San Diego, Calif.). Statistical significance for Kaplan-Meier analysis was determined by the log-rank (Mantel-Cox) test. All procedures involving mice were approved by the University Committee on Use and Care of Animals (UCUCA) at the University of Michigan and conform to their relevant regulatory standards.
# ERG protein = ERG protein (Homo sapiens, UniProt P11308); settings: mouse, in vivo
# Experimental: VCaP cells were seeded in 6-well plates at 0.5×10^6 cells/ml and after allowing cells to attach, cells were harvested and homogenized in NP40 lysis buffer (Sigma) containing a complete protease inhibitor cocktail (Roche). Ten micrograms of each protein extract was boiled in SDS sample buffer, size fractionated by SDS-PAGE, and transferred onto a PVDF membrane (GE Healthcare). […] Following three washes in TBS-T, the blots were incubated with horseradish peroxidase conjugated secondary antibody and the signals visualized by enhanced chemiluminescence system according to manufacturer's instructions (GE Healthcare).
# (§1) Cell pellets or tumors treated with or without the peptidomimetics were lysed in cell lysis buffer (20 mM MOPS, pH 7.0, 2 mM EGTA, 5 mM EDTA, 30 mM sodium fluoride, 60 mM β-glycerophosphate, 20 mM sodium pyrophosphate, 1 mM sodium orthovanadate, 1% Triton X-100, 1 mM DTT, protease inhibitor cocktail (Roche)). Cell lysates (0.5-1.0 mg) were pre-cleaned with protein A/G agarose beads (Santa Cruz) by incubation for 1 hour with shaking at 4° C. followed by centrifugation at 2000 rpm for 3 minute. Lysates were then incubated with 2 μg ERG antibody (Santa Cruz, C-17) at 4° C. for 4 hours with shaking prior to addition of 20 μl protein A/G agarose beads and incubated at 4° C. overnight. […] Samples were then analyzed by SDS-PAGE and Western blot analysis as described above.
# CD31^+ vessels = system: CD31^+ vessels; set-up: species or system mice; settings: mouse, in vivo
# Excerpt: (M) The quantitative data of IHC staining.
# ERG = molecular target: T1, ERG (Homo sapiens, UniProt P11308)
# T1 sequence (P11308 1-479): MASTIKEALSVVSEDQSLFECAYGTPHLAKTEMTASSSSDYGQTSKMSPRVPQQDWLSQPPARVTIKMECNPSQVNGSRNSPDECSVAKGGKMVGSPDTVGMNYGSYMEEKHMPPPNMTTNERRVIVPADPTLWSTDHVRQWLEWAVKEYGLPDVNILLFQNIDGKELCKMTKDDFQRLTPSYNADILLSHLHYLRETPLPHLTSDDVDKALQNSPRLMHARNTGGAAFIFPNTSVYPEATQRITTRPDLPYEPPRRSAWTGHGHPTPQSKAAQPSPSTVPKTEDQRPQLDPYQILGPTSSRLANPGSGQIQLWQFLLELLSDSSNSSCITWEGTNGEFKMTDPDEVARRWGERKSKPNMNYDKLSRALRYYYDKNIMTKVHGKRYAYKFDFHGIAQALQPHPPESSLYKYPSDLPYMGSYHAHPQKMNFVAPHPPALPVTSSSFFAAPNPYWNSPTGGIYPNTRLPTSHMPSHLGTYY
# Experimental: This technique was applied to evaluate the target binding specificity of RI-EIPs. […] All CETSAs were performed after 3 hours treatment with the peptidomimetics at the indicated doses and temperatures.
# [2] = system: ERG targets such as TDRD1, ARHGDIB, NDRG1 and CACNA1D; set-up: species or system mice; settings: mouse, in vivo
# Experimental: Total RNA was isolated from VCaP cells and tumors using Qiazol following the manufacturer's protocol (Qiagen). Quantitative PCR (QPCR) was performed using SYBR Green dye on an Applied Biosystems 7300 Real Time PCR system (Applied Biosystems) as described (Tomlins et al., 2005). Briefly, 2 μg of total RNA was reverse transcribed into cDNA using SuperScript III (Invitrogen) in the presence of random primers (Invitrogen). All reactions were performed in triplicate with SYBR Green Master Mix (Applied Biosystems) and 25 ng of forward and reverse primer according to the manufacturer's recommended thermocycling conditions, and then subjected to melt curve analysis. Threshold levels for each experiment were set during the exponential phase of the QPCR reaction using Sequence Detection Software version 1.2.2 (Applied Biosystems). The relative quantity of the target gene was calculated for each sample using the ΔΔCt method by the comparing mean Ct of the gene to the average Ct of the housekeeping gene, […] (Livak and Schmittgen, 2001). All oligonucleotide primers were synthesized by Integrated DNA Technologies (Coralville, Iowa). The primer sequences for the transcript analyzed were previously described (Brenner et al., 2011; supra).
# ERG:DNA-PKcs interaction = molecular target: T2, ERG:DNA-PKcs interaction (Homo sapiens, UniProt P11308); settings: mouse, in vivo, 25 mg/kg
# T2 sequence (P11308 33-479 limits assumed): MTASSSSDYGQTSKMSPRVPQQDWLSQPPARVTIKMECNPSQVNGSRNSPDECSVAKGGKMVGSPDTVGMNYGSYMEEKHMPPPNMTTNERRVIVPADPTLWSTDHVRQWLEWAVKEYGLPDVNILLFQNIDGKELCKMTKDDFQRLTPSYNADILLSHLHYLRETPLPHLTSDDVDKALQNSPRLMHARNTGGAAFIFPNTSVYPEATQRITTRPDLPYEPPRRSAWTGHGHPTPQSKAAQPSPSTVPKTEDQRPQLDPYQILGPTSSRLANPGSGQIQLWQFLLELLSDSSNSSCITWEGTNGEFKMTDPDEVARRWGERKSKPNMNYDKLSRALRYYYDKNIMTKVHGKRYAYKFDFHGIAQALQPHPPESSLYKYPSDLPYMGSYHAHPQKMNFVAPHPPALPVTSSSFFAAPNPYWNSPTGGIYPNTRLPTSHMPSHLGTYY
# Experimental: as §1
# VCaP xenografted mice were injected with a single dose of 25 mg/kg biotinylated RI-EIP1 and serum and tumors were collected at varying time intervals as indicated.
# VCaP cells = format: cell-based
# Experimental: The samples were treated with SDS loading buffer supplied with 10 mM DTT for 5 min at 85° C. The proteins were alkylated by adding iodoacetamide to the final concentration of 15 mM. The samples were subjected to SDS-PAGE and the whole lanes were cut out and digested with trypsin in-gel for 2 hours. The resulting peptides were extracted, dried and resuspended in 0.1% formic acid with 5% acetonitrile prior to loading onto a trap EASY-column (Thermo Scientific) coupled to an in-house made nano HPLC column (20 cm×75 um) packed with LUNA C18 media. Analysis was performed on Velos Pro mass spectrometer (Thermo Scientific) operated in data-dependent mode using 90-min gradients in EASY-LC system (Proxeon) with 95% water, 5% acetonitrile (ACN), 0.1% formic acid (FA) (solvent A), and 95% ACN, 5% water, 0.1% FA (solvent B) at a flow rate of 220 nl/min. […]
# The resulting spectrum files were transformed into MGF format by MSConvert software and interrogated by MASCOT 2.4 search engine using human UniProt database version 15 concatenated with reverse sequences for estimation of false discovery rate (FDR) and with a list of common contaminants. […] The peptide FDR was calculated as 2×(decoy_hits)/(target+decoy hits). Spectral counts for all detected proteins were assembled using an in-house written Python script. […]
smiles,measurement,setting,value
CC(C)C[C@@H](NC(=O)[C@H]1CCCN1C(=O)[C@H]1CCCN1C(=O)[C@@H](Cc1ccc(O)cc1)NC(=O)[C@@H](CC(C)C)NC(=O)[C@@H](Cc1ccccc1)NC(=O)[C@H](NC(=O)CNC(=O)CNC(=O)[C@@H](CCCNC(=N)N)NC(=O)[C@@H](CCCCN)NC(=O)[C@@H](CCCCN)NC(=O)[C@@H](CCCNC(=N)N)NC(=O)[C@@H](CCCNC(=N)N)NC(=O)[C@@H](CCC(N)=O)NC(=O)[C@@H](CCCNC(=N)N)NC(=O)[C@@H](CCCNC(=N)N)NC(=O)[C@@H](CCCNC(=N)N)NC(=O)CN)[C@H](C)O)C(=O)O [RI-EIP1] (H-G[dR][dR][dR][dQ][dR][dR][dK][dK][dR]GG[dT][dF][dL][dY][dP][dP][dL]-OH),recurrences after additional 30 days without therapy,[1]; 25 mg/kg group,no recurrences were observed
same,tumors completely regressed with no palpable tumor,"[1]; 25 mg/kg, day 18",10%
same,tumors with no signs of recurrence,"[1]; 25 mg/kg, extended treatment, day 30",35%
same,"tumor growth, additional VCaP xenograft studies","[1]; 1, 5 and 25 mg/kg, effect at 25 mg/kg relative to control",significant suppression
same,VCaP tumor growth,"[1]; 10 or 25 mg/kg per day, day 18, relative to mutant peptide, p<0.01",dose-dependent reduction
same,ERG protein in VCaP xenograft tumors,ERG protein,substantial degradation
same,angiogenesis by number of CD31^+ vessels in FFPE sections,CD31^+ vessels,did not alter angiogenesis
same,soluble ERG protein in VCaP versus HUVEC cells (CETSA),ERG,clear difference
same,gene expression of ERG targets in VCaP tumors,[2],inhibited
same,ERG:DNA-PKcs interaction in VCaP xenograft tumors,ERG:DNA-PKcs interaction,blocked
same,depletion of ERG among 3020 proteins identified,VCaP cells,most significantly depleted
